Experimental findings from ChEMBL document CHEMBL4387758, “Discovery and Biological evaluation of pyrimido[4,5-d]pyrimidine-2,4(1H,3H)-dione derivatives as potent Bruton's tyrosine kinase inhibitors” (Bioorg Med Chem, 2019) are described below.

pIC50: −log10 of the molar value.

Experiment [1] concerns the target T1, Tyrosine-protein kinase BTK (Homo sapiens, UniProt Q06187). The experiment is described as follows: Inhibition of BTK (unknown origin) by ELISA. Background: An ELISA detects its analyte on a solid surface through an enzyme-linked reagent.
Experiment [2] relates to TMD8. Nature of the experiment: Cell cycle arrest in BTK-dependent human TMD8 cells assessed as accumulation of cells in G1 phase at 1 uM incubated for 72 hrs by propidium iodide staining based flow cytometry. Type of experiment: functional.
Experiment [3] has as its target T1, Tyrosine-protein kinase BTK. The experiment is described as follows: Inhibition of BTK phosphorylation at Tyr223 residue in human TMD8 cells at 0.1 to 1000 nM by Western blot analysis. In kind it is cell-based. In general terms: Immunoblotting shows a protein as a band on a membrane.
Experiment [4] has as its system Ramos. The experiment is described as follows: cells. As to conditions: Homo sapiens, 72 h.
Description: Antiproliferative activity against human Ramos cells assessed as reduction in cell viability incubated for 72 hrs by CCK-8 assay
For experiment [5], the system named is TMD8. Nature of the experiment: Antiproliferative activity against human TMD8 cells assessed as reduction in cell viability incubated for 72 hrs by CCK-8 assay. In kind it is functional, cell-based. As to conditions: TMD8, 72 h. (In general: Formazan colour is commonly taken as a measure of viable cells.)
The species named for experiment [6] is Homo sapiens. Nature of the experiment: Selectivity ratio of IC50 for inhibition of EGFR (unknown origin) to IC50 for inhibition of BTK (unknown origin).

T1 sequence (Q06187 whole entry): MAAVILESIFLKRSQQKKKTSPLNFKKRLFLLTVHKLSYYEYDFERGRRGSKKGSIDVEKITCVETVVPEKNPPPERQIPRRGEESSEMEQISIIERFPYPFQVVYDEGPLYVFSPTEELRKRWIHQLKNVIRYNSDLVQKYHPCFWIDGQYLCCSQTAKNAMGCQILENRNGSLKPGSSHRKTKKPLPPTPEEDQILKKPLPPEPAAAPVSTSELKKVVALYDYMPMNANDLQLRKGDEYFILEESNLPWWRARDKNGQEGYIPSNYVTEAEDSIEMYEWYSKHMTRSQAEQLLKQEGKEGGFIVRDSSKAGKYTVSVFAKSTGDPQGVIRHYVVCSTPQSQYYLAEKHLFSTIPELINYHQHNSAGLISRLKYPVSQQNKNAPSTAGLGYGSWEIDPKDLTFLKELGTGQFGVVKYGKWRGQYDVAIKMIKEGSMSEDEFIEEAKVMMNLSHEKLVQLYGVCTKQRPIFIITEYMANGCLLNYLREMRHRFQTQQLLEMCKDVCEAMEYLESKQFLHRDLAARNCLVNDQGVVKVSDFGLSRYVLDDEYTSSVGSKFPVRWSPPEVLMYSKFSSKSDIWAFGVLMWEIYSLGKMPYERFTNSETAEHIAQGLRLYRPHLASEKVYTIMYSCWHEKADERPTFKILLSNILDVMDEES

Broadly, the pIC50 is −log10 of the IC50, conventionally taken in molar units. `C=CC(=O)Nc1cccc(-n2c(=O)n(C(C)C)c(=O)c3cnc(Nc4ccc(N5CCC(N(C)C)CC5)cc4OC)nc32)c1`: the pIC50 in experiment [1] is 6.44.

In turn, `C=CC(=O)Nc1cccc(-n2c(=O)n(C(C)C)c(=O)c3cnc(Nc4ccc(N5CCC(N6CCN(C)CC6)CC5)cc4OC)nc32)c1` showed a pIC50 in experiment [1] of 6.84. On the same count and under the same terms, the result for `C=CC(=O)Nc1cccc(-n2c(=O)n(C(C)C)c(=O)c3cnc(Nc4ccc(N5CCN(C)CC5)cc4OC)nc32)c1` reads 6.29; that for `C=CC(=O)Nc1cccc(-n2c(=O)n(CCc3ccccc3)c(=O)c3cnc(Nc4ccc(N5CCC(N(C)C)CC5)cc4OC)nc32)c1`, 7.64.

With `C=CC(=O)Nc1cccc(-n2c(=O)n(C(C)C)c(=O)c3cnc(Nc4ccc(N5CCN(C)CC5)c(C)c4)nc32)c1`, in experiment [2], the Activity amounted to 75.2%. In addition, the inhibition result in experiment [3] was “Dose-dependent effect”. Further, the pIC50 is 5.04 in experiment [4], 9.10 in experiment [1] and 6.14 in experiment [5].

In the case of `C=CC(=O)Nc1cccc(-n2c(=O)n(C(C)C)c(=O)c3cnc(Nc4ccc(N(C)CCN(C)C)cc4OC)nc32)c1`, in experiment [1], the pIC50 is 6.01.

`C=CC(=O)Nc1cccc(-n2c(=O)n(CC)c(=O)c3cnc(Nc4ccc(N5CCC(N(C)C)CC5)cc4OC)nc32)c1` gave a pIC50 in experiment [1] of 6.40. On the same count and under the same terms, under `C=CC(=O)Nc1cccc(-n2c(=O)n(C)c(=O)c3cnc(Nc4ccc(N5CCOCC5)cc4OC)nc32)c1` stands 6.07.

In turn, `C=CC(=O)Nc1cccc(-n2c(=O)n(C)c(=O)c3cnc(Nc4ccccc4)nc32)c1` had a pIC50 in experiment [1] of 8.21. On the same count and under the same terms, the result for `C=CC(=O)Nc1cccc(-n2c(=O)n(C)c(=O)c3cnc(Nc4ccc(N5CCSCC5)cc4OC)nc32)c1` reads 6.09. Same read-out and setting: under `C=CC(=O)Nc1cccc(-n2c(=O)n(CCC)c(=O)c3cnc(Nc4ccc(N5CCC(N(C)C)CC5)cc4OC)nc32)c1` stands 7.52; under `C=CC(=O)Nc1cccc(-n2c(=O)n(CCCc3ccccc3)c(=O)c3cnc(Nc4ccc(N5CCC(N(C)C)CC5)cc4OC)nc32)c1`, 7.12; under `C=CC(=O)Nc1cccc(-n2c(=O)n(C)c(=O)c3cnc(Nc4ccc(N5CCC(N(C)C)CC5)cc4OC)nc32)c1`, 6.44. Compound `C=CC(=O)Nc1cccc(-n2c(=O)n(Cc3ccccc3)c(=O)c3cnc(Nc4ccc(N5CCC(N(C)C)CC5)cc4OC)nc32)c1` showed a pIC50 in experiment [1] of 6.61. In addition, the Ratio IC50 in experiment [6] came out at 206. Turning to `C=CC(=O)Nc1cccc(-n2c(=O)n(C(C)C)c(=O)c3cnc(Nc4ccc(N5CCN(C)CC5)c(OC)c4)nc32)c1`, the Activity in experiment [2] came out at 75.4%. Moreover, the inhibition entry in experiment [3] is “Dose-dependent effect”. In addition, the pIC50 was 5.02 in experiment [4], 8.92 in experiment [1] and 6.09 in experiment [5].

In the case of `C=CC(=O)Nc1cccc(-n2c(=O)n(C(C)C)c(=O)c3cnc(Nc4ccc(OCCN(C)C)cc4OC)nc32)c1`, in experiment [1], the pIC50 is 6.46.

For the compound `C=CC(=O)Nc1cccc(-n2c(=O)n(C)c(=O)c3cnc(Nc4ccc(N5CCN(C(C)=O)CC5)cc4OC)nc32)c1`, the pIC50 in experiment [1] is 6.14. `C=CC(=O)Nc1cccc(-n2c(=O)n(C)c(=O)c3cnc(Nc4ccccc4OC)nc32)c1` showed a pIC50 in experiment [1] of 6.00.
